ChEMBL document CHEMBL1127036, “Design of antineoplastic agents on the basis of the "2-phenylnaphthalene-type" structural pattern. 2. Synthesis and biological activity studies of benzo]b]naphtho[2,3-d]furan-6,11-dione derivatives” (J Med Chem, 1993)
The source made the active and inactive calls. The rule behind the calls is not given here.

How the values were obtained:
Assay type in all cases: functional, cell-based
[1] = Cytotoxicity against human SCLC cells resistant to cisplatin (SCLC/CDDP)
[2] = system: Tumor Cell line; assay: Tested for the inhibition of human cancer cell growth (NCI drug-discovery screen.)
[3] = system: HL-60; assay: Tested for inhibition against human promyelocytic leukemia cells (HL-60 )
[4] = system: N592; assay: Cytotoxicity against human small-cell lung cancer (SCLC)
[5] = system: CCRF-CEM; assay: Tested for inhibition against CEM/MDR (multidrug resistant) cells; conditions: Homo sapiens
[6] = system: CCRF-CEM; assay: Tested for inhibition against CEM cells; conditions: Homo sapiens
[7] = system: Tumor Cell line; assay: Tested for the inhibition of human cancer cell growth (NCI drug-discovery screen.); Inactive

Compound | IC50 ([1]; Homo sapiens, SCLC) [nM] | IC50 [2] [nM] | IC50 [3] [nM] | IC50 ([4]; Homo sapiens, N592) [nM] | IC50 [5] [nM] | IC50 [6] [nM] | Log IC50 [7] | IC50 ([1]; sclc) [nM] | IC50 ([4]; n592) [nM]
CN(C)CCCOc1cc(O)c2c3c(oc2c1)C(=O)c1ccccc1C3=O | 680 | 100 | 45 | 680 | – | – | – | – | –
CN(C)CCOc1cc2oc3c(c2cc1Cl)C(=O)c1ccccc1C3=O | 620 | 1000 | 240 | 370 | 300 | 250 | – | – | –
O=c1[nH]cc(F)c(=O)[nH]1 [FLUOROURACIL] | 8400 | – | – | 5400 | – | – | – | – | –
CN(C)CCCOc1cc2oc3c(c2c2ccccc12)C(=O)c1ccccc1C3=O | > 2500 | – | 1390 | > 2500 | – | – | inactive | – | –
CN(C)CCOc1cc2oc3c(c2c2ccccc12)C(=O)c1ccccc1C3=O | 1950 | – | 870 | 1300 | – | – | inactive | – | –
O=C1c2ccccc2C(=O)c2c1oc1cc3c(cc21)OCO3 | > 40300 | – | > 100000 | > 40300 | – | – | – | – | –
O=C1c2ccccc2C(=O)c2c1oc1cc(O)c3ccccc3c21 | > 3200 | – | 80600 | > 3200 | – | – | – | – | –
CN(C)CCCOc1cc2oc3c(c2cc1Cl)C(=O)c1ccccc1C3=O | 590 | 10000 | 280 | 590 | 150 | 170 | – | – | –
CCN(CC)CCOc1cc(O)c2c3c(oc2c1)C(=O)c1ccccc1C3=O | 480 | 100 | 98 | 240 | – | – | – | – | –
O=C1c2ccccc2C(=O)c2c1oc1cc(O)cc(O)c21 | 1280 | 1000 | 220 | 1030 | 600 | 500 | – | – | –
CN(C)CCOc1cc(O)c2c3c(oc2c1)C(=O)c1ccccc1C3=O | 2560 | 100 | 46 | 2130 | – | – | – | – | –
O=C1c2ccccc2C(=O)c2c1oc1cc(O)ccc21 | > 3800 | 10000 | 7780 | > 3800 | – | – | – | – | –
CN(C)CCOc1ccc2c3c(oc2c1)C(=O)c1ccccc1C3=O | 940 | 10000 | 300 | 730 | 150 | 200 | – | – | –
CC[C@]1(O)C[C@@H]2CN(CCc3c([nH]c4ccccc34)[C@@](C(=O)OC)(c3cc4c(cc3OC)N(C)[C@H]3[C@@](O)(C(=O)OC)[C@H](OC(C)=O)[C@]5(CC)C=CCN6CC[C@]43[C@@H]65)C2)C1 [VINBLASTINE] | 5 | – | – | 4 | – | – | – | – | –
COc1cc([C@@H]2c3cc4c(cc3[C@@H](O[C@@H]3O[C@@H]5CO[C@@H](C)O[C@H]5[C@H](O)[C@H]3O)[C@H]3COC(=O)[C@H]23)OCO4)cc(OC)c1O [ETOPOSIDE] | 1300 | – | – | 500 | – | – | – | – | –
O=C1c2c(O)ccc(O)c2C(=O)c2c(NCCNCCO)ccc(NCCNCCO)c21 [MITOXANTRONE] | 30 | – | – | 20 | – | – | – | – | –
CC(C)N(CCOc1cc(O)c2c3c(oc2c1)C(=O)c1ccccc1C3=O)C(C)C | 1130 | 1000 | 89 | 220 | – | – | – | – | –
CISPLATIN | – | – | – | – | – | – | – | 6700 | 670
CN(C)CCCOc1ccc2c3c(oc2c1)C(=O)c1ccccc1C3=O | 2600 | 10000 | 340 | 1300 | – | – | – | – | –
COc1cccc2c1C(=O)c1c(O)c3c(c(O)c1C2=O)C[C@@](O)(C(=O)CO)C[C@@H]3O[C@H]1C[C@H](N)[C@H](O)[C@H](C)O1 [DOXORUBICIN] | 30 | – | – | 40 | – | – | – | – | –
Cc1cc(O)cc2oc3c(c12)C(=O)c1ccccc1C3=O | > 3500 | – | 6650 | > 3500 | – | – | inactive | – | –
O=C1c2ccccc2C(=O)c2c1oc1cc(O)c(Cl)cc21 | > 3400 | 10000 | 6090 | > 3400 | – | – | – | – | –
Cc1cc(OCCN(C)C)cc2oc3c(c12)C(=O)c1ccccc1C3=O | > 2600 | – | 1800 | > 2600 | – | – | – | – | –
